Experimental findings from patent US20230085307A1, “PYRIDAZINONE COMPOUND AND HERBICIDE” (NISSAN CHEMICAL CORPORATION, priority 2019, published 2023) are described below.

In the first test the test system is late watergrass. Kind of test: Test Example 1: herbicidal activity, application before weed generation under submerged conditions (Table 16, symbol A). Type of test: in vivo, late watergrass (Echinochloa oryzicola). The conditions noted are these: 320 g/ha applied herbicide. In short, it runs like this:
(§1)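 Emulsion formulation, water-diluted to set dose, was put onto the flooded surface (4 cm depth, alluvial soil) the same day weeds were sown and 2.5-leaf rice transplanted. After 3 weeks at 25-30 °C under glass, each species was rated 0 (≤5% kill) to 5 (≥90% kill).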
Take `C#CCOc1ccc(-c2sc3ccc(F)cc3c2-c2c(O)c(C)nn(C)c2=O)cc1` [2-053]: the “Herbicidal effect on A: late watergrass (grade 0-5)” value is 2 (Herbicidal rate of 20% or more and less than 40%).

The next test relates to Japanese bulrush. The test is described as follows: Test Example 1: herbicidal activity, application before weed generation under submerged conditions (Table 16, symbol B). The format is in vivo, Japanese bulrush (Schoenoplectus juncoides). The conditions noted are these: 320 g/ha applied herbicide. In short, it runs like this: as §1
With `C#CCOc1ccc(-c2sc3ccc(F)cc3c2-c2c(O)c(C)nn(C)c2=O)cc1` [2-053], the “Herbicidal effect on B: Japanese bulrush (grade 0-5)” value is 3 (Herbicidal rate of 40% or more and less than 70%).

The subject of another test is oval-leafed pondweed. The test is described as follows: Test Example 1: herbicidal activity, application before weed generation under submerged conditions (Table 16, symbol C). Type of test: in vivo, oval-leafed pondweed (Monochoria vaginalis). The conditions noted are these: 320 g/ha applied herbicide. In short, it runs like this:
as §1
With `C#CCOc1ccc(-c2sc3ccc(F)cc3c2-c2c(O)c(C)nn(C)c2=O)cc1` [2-053], the “Herbicidal effect on C: oval-leafed pondweed (grade 0-5)” value was 4 (Herbicidal rate of 70% or more and less than 90%).

The next test concerns barnyard grass. Kind of test: Test Example 3: herbicidal effect by foliage application, Wagner pot (Table 18, symbol H). The format is in vivo, barnyard grass (Echinochloa crus-galli). The conditions noted are these: 320 g/ha. In short, it runs like this:
(§2)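 Plants were sown in alluvial soil held under 0.1–0.5 cm standing water and grown 14 days in a greenhouse at 25–30 °C. An emulsifiable formulation, water-diluted to the set dose, was then sprayed onto the foliage, and effects were scored three weeks later using previously defined criteria.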
On to `C#CCOc1ccc(-c2sc3ccc(F)cc3c2-c2c(O)c(C)nn(C)c2=O)cc1` [2-053], for which the “herbicidal effect on H (barnyard grass), rating 0-5” value is listed as 5 (Herbicidal rate of 90% or more (almost completely withered)).

The subject of another test is Chinese sprangletop. The test is described as follows: Test Example 3: herbicidal effect by foliage application, Wagner pot (Table 18, symbol D). The format is in vivo, chinese sprangletop (Leptochloa chinensis). The conditions noted are these: 320 g/ha. The gist of the method:
as §2
On to `C#CCOc1ccc(-c2sc3ccc(F)cc3c2-c2c(O)c(C)nn(C)c2=O)cc1` [2-053], for which the “herbicidal effect on D (Chinese sprangletop), rating 0-5” value is reported as 5 (Herbicidal rate of 90% or more (almost completely withered)).

For a further test, the system named is rice flat sedge. Kind of test: Test Example 3: herbicidal effect by foliage application, Wagner pot (Table 18, symbol E). The format is in vivo, rice flat sedge (Cyperus iria). The conditions noted are these: 320 g/ha. The gist of the method: as §2
Take `C#CCOc1ccc(-c2sc3ccc(F)cc3c2-c2c(O)c(C)nn(C)c2=O)cc1` [2-053]: the “herbicidal effect on E (rice flat sedge), rating 0-5” value is 4 (Herbicidal rate of 70% or more and less than 90%).

Another test relates to Italian ryegrass. Kind of test: Test Example 4: herbicidal effect by soil treatment (Table 19, symbol K). Type of test: in vivo, Italian ryegrass (Lolium multiflorum). The conditions noted are these: 320 g/ha. In short, it runs like this:
(§3)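 Three weeks of greenhouse growth at 25° C. to 30° C. followed a uniform surface spray of water-diluted emulsion at a predetermined herbicide amount. Seeds had been sown beforehand under about 1.5 cm of sterilized diluvial soil. Grading followed criteria set out in an earlier test.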
Consider `C#CCOc1ccc(-c2sc3ccc(F)cc3c2-c2c(O)c(C)nn(C)c2=O)cc1` [2-053], for which the “herbicidal effect rating, K: Italian ryegrass” value was 0 (Herbicidal rate of 5% or less (almost no effect)).

The subject of a further test is windgrass. Kind of test: Test Example 4: herbicidal effect by soil treatment (Table 19, symbol L). Type of test: in vivo, windgrass (Apera spica-venti). The conditions noted are these: 320 g/ha. In short, it runs like this: as §3
As to `C#CCOc1ccc(-c2sc3ccc(F)cc3c2-c2c(O)c(C)nn(C)c2=O)cc1` [2-053], the “herbicidal effect rating, L: windgrass” value is 0 (Herbicidal rate of 5% or less (almost no effect)).

For the next test, the system named is lambsquarters. Kind of test: Test Example 4: herbicidal effect by soil treatment (Table 19, symbol O). The conditions noted are these: 320 g/ha. Type of test: in vivo, lambsquarters (Chenopodium album). The gist of the method: as §3
In the case of `C#CCOc1ccc(-c2sc3ccc(F)cc3c2-c2c(O)c(C)nn(C)c2=O)cc1` [2-053], the “herbicidal effect rating, O: lambsquarters” value was 3 (Herbicidal rate of 40% or more and less than 70%).

In a further test the test system is chickweed. Kind of test: Test Example 4: herbicidal effect by soil treatment (Table 19, symbol P). The conditions noted are these: 320 g/ha. The format is in vivo, common chickweed (Stellaria media). In short, it runs like this:
as §3
As to `C#CCOc1ccc(-c2sc3ccc(F)cc3c2-c2c(O)c(C)nn(C)c2=O)cc1` [2-053], the “herbicidal effect rating, P: chickweed” value is 1 (Herbicidal rate of 5% or more and less than 20%).

The next test deals with persian speedwell. Kind of test: Test Example 4: herbicidal effect by soil treatment (Table 19, symbol R). Type of test: in vivo, Persian speedwell (Veronica persica). The conditions noted are these: 320 g/ha. In short, it runs like this:
as §3
Turning to `C#CCOc1ccc(-c2sc3ccc(F)cc3c2-c2c(O)c(C)nn(C)c2=O)cc1` [2-053], the “herbicidal effect rating, R: persian speedwell” value is given as 5 (Herbicidal rate of 90% or more (almost completely withered)).

The test system of another test is southern crabgrass. Kind of test: Test Example 5: herbicidal effect by foliage application, plastic box (Table 20, symbol F). Type of test: in vivo, southern crabgrass (Digitaria ciliaris). The conditions noted are these: foliage application, 320 g/ha, evaluated three weeks after application. The gist of the method: (§4)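 Plants sown in sterilized diluvial soil and grown 14 days in a greenhouse at 25° C to 30° C, then sprayed on the foliage with the compound's emulsion diluted in water to a predetermined herbicide amount. Injury to weeds and crops scored three weeks after application on a visual rating scale.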
Regarding `C#CCOc1ccc(-c2sc3ccc(F)cc3c2-c2c(O)c(C)nn(C)c2=O)cc1` [2-053], the “herbicidal effect on F: southern crabgrass” value is 4 (Herbicidal rate of 70% or more and less than 90%).

For the next test, the system named is barnyard grass. Kind of test: Test Example 5: herbicidal effect by foliage application, plastic box (Table 20, symbol H). Type of test: in vivo, barnyard grass (Echinochloa crus-galli). The conditions noted are these: foliage application, 320 g/ha, evaluated three weeks after application. In short, it runs like this: as §4
Regarding `C#CCOc1ccc(-c2sc3ccc(F)cc3c2-c2c(O)c(C)nn(C)c2=O)cc1` [2-053], the “herbicidal effect on H: barnyard grass” value was 5 (Herbicidal rate of 90% or more (almost completely withered)).

In a further test the test system is wild oat. The test is described as follows: Test Example 5: herbicidal effect by foliage application, plastic box (Table 20, symbol I). The conditions noted are these: foliage application, 320 g/ha, evaluated three weeks after application. The format is in vivo, wild oat (Avena fatua). In short, it runs like this:
as §4
For the molecule `C#CCOc1ccc(-c2sc3ccc(F)cc3c2-c2c(O)c(C)nn(C)c2=O)cc1` [2-053], the “herbicidal effect on I: wild oat” value was 2 (Herbicidal rate of 20% or more and less than 40%).

A further test concerns blackgrass. The test is described as follows: Test Example 5: herbicidal effect by foliage application, plastic box (Table 20, symbol J). Type of test: in vivo, blackgrass (Alopecurus myosuroides). The conditions noted are these: foliage application, 320 g/ha, evaluated three weeks after application. In short, it runs like this:
as §4
With `C#CCOc1ccc(-c2sc3ccc(F)cc3c2-c2c(O)c(C)nn(C)c2=O)cc1` [2-053], the “herbicidal effect on J: blackgrass” value is 4 (Herbicidal rate of 70% or more and less than 90%).

In a further test the test system is windgrass. The test is described as follows: Test Example 5: herbicidal effect by foliage application, plastic box (Table 20, symbol L). The format is in vivo, windgrass (Apera spica-venti). The conditions noted are these: foliage application, 320 g/ha, evaluated three weeks after application. The gist of the method:
as §4
For `C#CCOc1ccc(-c2sc3ccc(F)cc3c2-c2c(O)c(C)nn(C)c2=O)cc1` [2-053], the “herbicidal effect on L: windgrass” value was 4 (Herbicidal rate of 70% or more and less than 90%).

The subject of the next test is velvetleaf. Kind of test: Test Example 5: herbicidal effect by foliage application, plastic box (Table 20, symbol M). Type of test: in vivo, velvetleaf (Abutilon theophrasti). The conditions noted are these: foliage application, 320 g/ha, evaluated three weeks after application. In short, it runs like this:
as §4
Take `C#CCOc1ccc(-c2sc3ccc(F)cc3c2-c2c(O)c(C)nn(C)c2=O)cc1` [2-053]: the “herbicidal effect on M: velvetleaf” value was 5 (Herbicidal rate of 90% or more (almost completely withered)).

The subject of the next test is redroot pigweed. Kind of test: Test Example 5: herbicidal effect by foliage application, plastic box (Table 20, symbol N). The format is in vivo, redroot pigweed (Amaranthus retroflexus). The conditions noted are these: foliage application, 320 g/ha, evaluated three weeks after application. In short, it runs like this: as §4
For `C#CCOc1ccc(-c2sc3ccc(F)cc3c2-c2c(O)c(C)nn(C)c2=O)cc1` [2-053], the “herbicidal effect on N: redroot pigweed” value was 5 (Herbicidal rate of 90% or more (almost completely withered)).

The test system of the next test is chickweed. The test is described as follows: Test Example 5: herbicidal effect by foliage application, plastic box (Table 20, symbol P). The format is in vivo, common chickweed (Stellaria media). The conditions noted are these: foliage application, 320 g/ha, evaluated three weeks after application. In short, it runs like this: as §4
As to `C#CCOc1ccc(-c2sc3ccc(F)cc3c2-c2c(O)c(C)nn(C)c2=O)cc1` [2-053], the “herbicidal effect on P: chickweed” value is on record as 5 (Herbicidal rate of 90% or more (almost completely withered)).
